What was measured:
[1] = tested on: collagenase from Chlostridium histolyticum; assay: Collagenase inhibition, substrate C FALGPA; type: biochemical; conditions: 30 min, 20° C.
Procedure: (§1) The biochemical test of collagenase inhibition was realized with a collagenase from Chlostridium histolyticum in a chromogenic synthetic substrate C: FALGPA (furylacryloyl-Leu-Gly-Pro-Ala), a specific substrate for collagenase, which […] by the enzyme. This substrate was obtained from SIGMA.
(§2) The amount of extracts used was 0.3% by weight, and the incubation time was 30 min (20° C.). The inhibition was investigated by determining the optical density “OD” at 234 nm.

[2] = target: collagenase from Chlostridium histolyticum; assay: Collagenase inhibition, chromogenic synthetic substrate C (FALGPA); type: biochemical; conditions: incubation 30 min, 20° C., OD at 234 nm
Procedure: as §1, §2

TIMP-1 = assay: Content of TIMP-1 in dermal fibroblast culture with and without UVA radiation; type: cell-based, human; conditions: concentration 0.1 μM
Procedure: To carry out the experiment, a fibroblast culture was prepared in a defined culture medium (DMEM) with fetal calf serum and inoculated 2–3 days later with the test substances. […] The abbreviation TIMP is understood as meaning a naturally occurring inhibitor of the metalloproteinase under the name “tissue inhibitor of matrix metalloproteinase”. The MMP and TIMP were determined using two different kits, which are commercially available under the name RPN2610 and RPN2611 from Amersham. The data given is the amount of MMP-1 and TIMP-1 in ng/ml from a test series with triple determination.

Human MMP-1 = assay: Release of MMP-1 from dermal fibroblasts with and without UVA radiation; type: cell-based; conditions: concentration 0.1 μM
Description: The ability of leaf extracts from Argania spinosa to reduce the toxic effect of UVA rays was investigated. This in vitro test investigates the ability to reduce the content of matrix metalloproteinases, such as, for example, MMP-1, which are released by human fibroblasts following UVA radiation. More MMP are released under the influence of UVA radiation. UVA rays were chosen as the model since they penetrate into the dermis, where they induce oxidative stress, which accelerates skin aging. Furthermore, it is already known that the release of matrix metalloproteinases increases during the normal aging process of the skin. Inhibition of the MMP would thus counteract the aging process of the skin. The in vitro system used was a culture of dermal fibroblasts, and the parameter determined was the release of MMP-1 from these fibroblasts under the influence of UV radiation. To carry out the experiment, a fibroblast culture was prepared in a defined culture medium (DMEM) with fetal calf serum and inoculated 2–3 days later with the test substances. […] The abbreviation TIMP is understood as meaning a naturally occurring inhibitor of the metalloproteinase under the name “tissue inhibitor of matrix metalloproteinase”. The MMP and TIMP were determined using two different kits, which are commercially available under the name RPN2610 and RPN2611 from Amersham. […]

[3] = tested on: MMP-1 released by human dermal fibroblasts; assay: Release of MMP-1 by dermal fibroblasts with and without UVA radiation; type: cell-based
Description: (§3) The ability of leaf extracts from Argania spinosa to reduce the toxic effect of UVA rays was investigated. This in vitro test investigates the ability to reduce the content of matrix metalloproteinases, such as, for example, MMP-1, which are released by human fibroblasts following UVA radiation. More MMP are released under the influence of UVA radiation. UVA rays were chosen as the model since they penetrate into the dermis, where they induce oxidative stress, which accelerates skin aging. Furthermore, it is already known that the release of matrix metalloproteinases increases during the normal aging process of the skin. Inhibition of the MMP would thus counteract the aging process of the skin.
(§4) The in vitro system used was a culture of dermal fibroblasts, and the parameter determined was the release of MMP-1 from these fibroblasts under the influence of UV radiation.
(§5) To carry out the experiment, a fibroblast culture was prepared in a defined culture medium (DMEM) with fetal calf serum and inoculated 2–3 days later with the test substances. […] After the end of the irradiation, the fibroblast culture was incubated again for 2 days, and then, on a sample of the supernatant of the culture solution, the content of MMP-1 and TIMP-1 was determined. […]
(§6) The MMP and TIMP were determined using two different kits, which are commercially available under the name RPN2610 and RPN2611 from Amersham. […]

[4] = tested on: TIMP-1 in human dermal fibroblast culture; assay: Content of TIMP-1 in supernatant of dermal fibroblasts with and without UVA radiation; type: cell-based
Description: as §3, §4, §5, §6

B16 melanocytes = assay: Inhibition of melanogenesis on B16 melanocytes; type: cell-based; conditions: concentration 0.0003% by wt.; ratio of proportion of proteins to content of melanin
Procedure: 2. Inhibition of melanogenesis on B16 melanocytes: The B16 melanocytes are cultivated in a defined medium (DMEM with 10% fetal calf serum) and incubated for 3 days at 37° C. and 5% CO2. The growth medium was replaced by the defined medium without calf serum, which comprised a certain content of the extracts to be tested. After further incubation for 3 days, the proportion of intact cells was determined via the content of cell proteins in accordance with the Bradford method (Anal. Biochem. 72, 248–254, 1976), and the content of melanin formed was determined by analyzing the optical density at 475 nm in accordance with the method described by Ando et al. 17th IFSCC Congress—Yokohama, 2, 909–918, 1992.
The results were determined as activity index in the ratio of proportion of proteins to content of melanin: the greater the index, the higher the inhibition activity and the lower the stimulation of melanogenesis.

tyrosinase [5] = assay: Tyrosinase inhibition in tubo; type: biochemical; conditions: L-DOPA substrate; dopachrome optical density 475 nm; concentration for 50% inhibition
Procedure: (§8) Tyrosinase inhibition: L-DOPA was mixed with tyrosinase and the extract to be tested. The optical density of the dopachrome was analyzed at 475 nm. The kinetics were then investigated and the concentration for a 50% strength inhibition (EC50) was determined.

Tyrosinase [6] = conditions: concentration for 50% inhibition; L-DOPA; dopachrome at 475 nm
Procedure: as §8

pancreas elastase [7] = assay: Inhibition of the elastase activity; type: biochemical; conditions: chromogenic synthetic substrate A; 30 min, 20° C.
Procedure: (§7) Serine proteases, such as, for example, elastase or collagenase, bring about the degradation of elastin, proteoglycans and collagen and thus cause a weakening of the connective tissue. In the following test, the inhibiting properties of the extracts toward a pancreas elastase were investigated in two systems, firstly in a chromogenic synthetic substrate A and secondly in a natural substrate B (elastin/Congo Red). The amount of extracts used was 0.3% by weight, and the incubation time was 30 min (20° C.). The inhibition was monitored photometrically at 410 and 520 nm, and the standard used was α1-antitrypsin ([…]).

pancreas elastase [8] = target: pancreas elastase (Homo sapiens, UniProt Q9UNI1); assay: Inhibition of the elastase activity; type: biochemical; conditions: natural substrate B (elastin/Congo Red); 30 min, 20° C.
Procedure: as §7

pancreas elastase, sequence (Q9UNI1 19-258): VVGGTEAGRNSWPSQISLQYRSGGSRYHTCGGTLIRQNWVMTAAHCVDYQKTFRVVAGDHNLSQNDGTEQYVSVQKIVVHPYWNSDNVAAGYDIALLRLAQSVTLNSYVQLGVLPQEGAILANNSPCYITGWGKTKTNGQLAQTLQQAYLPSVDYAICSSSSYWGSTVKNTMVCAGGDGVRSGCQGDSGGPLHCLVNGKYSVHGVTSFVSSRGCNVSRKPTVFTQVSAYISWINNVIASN
pancreas elastase (Homo sapiens, UniProt Q9UNI1), sequence (Q9UNI1 19-258): as above

N[C@@H](CS)C(=O)O [Cystein] was tested, and the “Collagenase inhibition IC50, Substrate C” value [1] was “IC50 = 1.56%” and the “IC50 (Collagenase inhibition)” value [2] was “IC50 = 1.56%”.

In the case of C[C@@H]1C[C@H]2[C@@H]3CCC4=CC(=O)C=C[C@]4(C)[C@@]3(F)[C@@H](O)C[C@]2(C)[C@@]1(O)C(=O)CO [Dexamethasone, dexamethasone], the TIMP-1 in ng/ml (TIMP-1; UVA 20 J/cm^2) is reported as 19 ng/mL, the TIMP-1 in ng/ml (TIMP-1; without UVA radiation) is reported as 39 ng/mL and the MMP-1 in ng/ml (Human MMP-1; UVA 20 J/cm^2) is reported as 7 ng/mL. For the same molecule, the MMP-1 in ng/ml (Human MMP-1; without UVA radiation) was 2 ng/mL.

In the case of C[C@@H]1C[C@H]2[C@@H]3CCC4=CC(=O)C=C[C@]4(C)[C@@]3(F)[C@@H](O)C[C@]2(C)[C@@]1(O)C(=O)CO [Dexamethasone], the “content of MMP-1 (in words)” value [3] is reported as “content of MMP-1 was already reduced” and the “content of TIMP-1 (in words)” value [4] is reported as “reduction in the content of TIMP-1”.

In the case of Oc1ccc(O)cc1 [Hydroquinone, hydroquinone], the “Melanin synthesis Index” value (B16 melanocytes) is reported as 2.21 and the “Tyrosinase in tubo EC50” value (tyrosinase [5]) is reported as “EC50 = 0.025%”.

In the case of Oc1ccc(O)cc1 [Hydroquinone], the “EC50 (Tyrosinase in tubo)” value (Tyrosinase [6]) is reported as “EC50 = 0.025%”.

With α1-antitrypsin the “Elastase inhibition IC50, Substrate A” value (pancreas elastase [7]) was “IC50 = 0.01%” and the “Elastase inhibition IC50, Substrate B” value (pancreas elastase [8]) was “IC50 = 0.034%”.
